According to patent publication EP4692091A1, “CA[…], AND PHARMACEUTICAL COMPOSITION, PREPARATION METHOD THEREFOR AND USE THEREOF” (Changchun Genescience Pharmaceutical Co., Ltd., priority 2023, dated 2024):

Assays:
Format in all cases: cell-based
NCI-N87 = assay: Inhibition of proliferation of NCI-N87 cells by test compounds (CellTiter-Glo, 72 h); conditions: NCI-N87, 72 h incubation
Protocol: 3: Test method (1) Cell plating: first, tumor cells NCI-N87 were cultured using a corresponding culture medium, trypsinized, centrifuged, resuspended for counting, adjusted to an appropriate concentration, and then plated on a 384-well plate. (2) Co-incubation of the compounds and tumor cells: after the cells adhered to the wall, 100 nL of a diluted bioactive substance (test compound) was added to the cell culture plate using ECHO, the final concentration of DMSO in wells of the cell plate was 0.33%, and the incubation was performed in an incubator at 37°C with […] for 72 h. (3) After the incubation was complete, 30 µL of a CTG reagent (CelltiterGlo kit) was added to each well. The culture was oscillated on a fast oscillator for 2 min, centrifuged at 1,000 rpm for 1 min, and kept away from light at room temperature for 30 min. The chemiluminescence signal value was read using an Envision instrument. (4) Cell viability detection: IC50 was calculated using GraphPad Prism 8 software, and the IC50 of the compounds was obtained using the following nonlinear fitting formula (see Table 3) : 11. Y=Bottom+(Top-Bottom)/(1+10^((LogIC50-X)*HillSlope)) 12. […] Table 3 Antiproliferative activity of test compounds on cells NCI-N87

SK-BR-3 = assay: Inhibition of proliferation of SK-BR-3 cells by compounds (CellTiter-Glo, 72 h); conditions: SK-BR-3, 72 h incubation
Protocol: 3: Test method (1) Cell plating: first, tumor cells SK-BR-3 were cultured using a corresponding culture medium, trypsinized, centrifuged, resuspended for counting, adjusted to an appropriate concentration, and then plated on a 384-well plate. (2) Co-incubation of the compounds and tumor cells: after the cells adhered to the wall, 100 nL of a diluted bioactive substance (test compound) was added to the cell culture plate using ECHO, the final concentration of DMSO in wells of the cell plate was 0.33%, and the incubation was performed in an incubator at 37°C with 5% CO2 for 72 h. (3) After the incubation was complete, 30 µL of a CTG reagent (CelltiterGlo kit) was added to each well. The culture was oscillated on a fast oscillator for 2 min, centrifuged at 1,000 rpm for 1 min, and kept away from light at room temperature for 30 min. The chemiluminescence signal value was read using an Envision instrument. (4) Cell viability detection: IC50 was calculated using GraphPad Prism 8 software, and the IC50 of the compounds was obtained using the following nonlinear fitting formula (see Table 1) : 1. Y=Bottom+(Top-Bottom)/(1+10^((LogIC50-X)*HillSlope)) 2. […] Table 1 Antiproliferative activity of test compounds on SK-BR-3

MDA-MB-468 = assay: Inhibition of proliferation of MDA-MB-468 cells by test compounds (CellTiter-Glo, 72 h); conditions: MDA-MB-468, 72 h incubation
Protocol: 3: Test method • (1) Cell plating: first, tumor cells MDA-MB-468 were cultured using a corresponding culture medium, trypsinized, centrifuged, resuspended for counting, adjusted to an appropriate concentration, and then plated on a 384-well plate. • (2) Co-incubation of the compounds and tumor cells: after the cells adhered to the wall, 100 nL of a diluted bioactive substance (test compound) was added to the cell culture plate using ECHO, the final concentration of DMSO in wells of the cell plate was 0.33%, and the incubation was performed in an incubator at 37°C with […] for 72 h. • (3) After the incubation was complete, 30 µL of a CTG reagent (CelltiterGlo kit) was added to each well. The culture was oscillated on a fast oscillator for 2 min, centrifuged at 1,000 rpm for 1 min, and kept away from light at room temperature for 30 min. The chemiluminescence signal value was read using an Envision instrument. • (4) Cell viability detection: IC50 was calculated using GraphPad Prism 8 software, and the IC50 of the compounds was obtained using the following nonlinear fitting formula (see Table 2): • 6. Y=Bottom+(Top-Bottom)/(1+10^((LogIC50-X)*HillSlope)) • 7. […] Table 2 Antiproliferative activity of test compounds on MDA-MB-468

| Compound | IC50 (NCI-N87; Homo sapiens, NCI-N87, 72 h) [µM] | IC50 (SK-BR-3; Homo sapiens, SK-BR-3, 72 h) [µM] | IC50 (MDA-MB-468; Homo sapiens, MDA-MB-468, 72 h) [µM] | IC50 (NCI-N87) [µM] | IC50 (SK-BR-3) [µM] | IC50 (MDA-MB-468) [µM] |
| --- | --- | --- | --- | --- | --- | --- |
| CC[C@@]1(O)C(=O)OCc2c1cc1n(c2=O)Cc2c-1nc1cc(F)c(C3CC3)c3c1c2C(NC(=O)C[C@@H](C)O)CC3 (single isomer, unassigned) [17-1] | 0.0036 | 0.0046 | 0.0058 | – | – | – |
| CC[C@@]1(O)C(=O)OCc2c1cc1n(c2=O)Cc2c-1nc1cc(F)c(C3CC3)c3c1c2C(NC(=O)[C@H]1C[C@@H](O)C1)CC3 (single isomer, unassigned) [18-2] | 0.0165 | 0.0096 | 0.012 | – | – | – |
| CC[C@@]1(O)C(=O)OCc2c1cc1n(c2=O)Cc2c-1nc1cc(F)c(C3CC3)c3c1c2C(NC(=O)C[C@@H](C)O)CCC3 (single isomer, unassigned) [19-1] | 0.0074 | 0.0083 | 0.0071 | – | – | – |
| CC[C@@]1(O)C(=O)OCc2c1cc1n(c2=O)Cc2c-1nc1cc(F)c(C3CC3)c3c1c2C(NC(=O)C[C@@H](C)O)CCC3 (single isomer, unassigned) [19-2] | – | – | – | 0.0074 | 0.0076 | 0.0069 |
| CC[C@@]1(O)C(=O)OCc2c1cc1n(c2=O)Cc2c-1nc1cc(F)c(C3CC3)c3c1c2C(NC(=O)[C@H]1C[C@@H](O)C1)CCC3 (single isomer, unassigned) [20-1] | 0.026 | 0.021 | 0.0156 | – | – | – |
| CC[C@@]1(O)C(=O)OCc2c1cc1n(c2=O)Cc2c-1nc1cc(F)c(C3CC3)c3c1c2C(NC(=O)[C@H]1C[C@@H](O)C1)CCC3 (single isomer, unassigned) [20-2] | – | – | – | 0.028 | 0.025 | 0.0195 |
| CC[C@@]1(O)C(=O)OCc2c1cc1n(c2=O)Cc2c-1nc1cc(F)c(C)c3c1c2C(NC(=O)[C@H]1C[C@@H](O)C1)CCO3 (single isomer, unassigned) [25-1] | – | – | – | 0.11 | 0.08 | 0.069 |
| CC[C@@]1(O)C(=O)OCc2c1cc1n(c2=O)Cc2c-1nc1cc(F)c(C)c3c1c2C(NC(=O)[C@H]1C[C@@H](O)C1)CCO3 (single isomer, unassigned) [25-2] | – | – | – | 0.04 | 0.019 | 0.018 |
| CC[C@@]1(O)C(=O)OCc2c1cc1n(c2=O)Cc2c-1nc1cc(F)c(Br)c3c1c2C(NC(=O)C[C@@H](C)O)CC3 (stereo partly drawn) [3-1, (R)-N-((1S,9S)-4-bromo-9-ethyl-5-fluoro-9-hydroxy-10,13-dioxo-2,3,9,10,13,15-hexahydro-1H,12H-benzo[de]pyrano[3',4',6,7]indolizino[1,2-b]quinolin-1-yl)-3-hydroxybutanamide] | – | – | – | 0.016 | 0.013 | 0.0075 |
| CC[C@@]1(O)C(=O)OCc2c1cc1n(c2=O)Cc2c-1nc1cc(F)c(Br)c3c1c2C(NC(=O)C[C@@H](C)O)CC3 (stereo partly drawn) [3-2, (R)-N-((1R,9S)-4-bromo-9-ethyl-5-fluoro-9-hydroxy-10,13-dioxo-2,3,9,10,13,15-hexahydro-1H,12H-benzo[de]pyrano[3',4',6,7]indolizino[1,2-b]quinolin-1-yl)-3-hydroxybutanamide] | – | – | – | 0.016 | 0.015 | 0.012 |
| CC[C@@]1(O)C(=O)OCc2c1cc1n(c2=O)Cc2c-1nc1cc(F)cc3c1c2C(NC(=O)C[C@@H](C)O)CC3 (stereo partly drawn) [4-1, (R)-N-((1S,9S)-9-ethyl-5-fluoro-9-hydroxy-10,13-dioxo-2,3,9,10,13,15-hexahydro-1H,12H-benzo[de]pyrano[3',4',6,7]indolizino[1,2-b]quinolin-1-yl)-3-hydroxybutanamide] | – | – | – | – | 0.061 | 0.034 |
| CC[C@@]1(O)C(=O)OCc2c1cc1n(c2=O)Cc2c-1nc1cc(F)cc3c1c2C(NC(=O)C[C@@H](C)O)CC3 (stereo partly drawn) [4-2, (R)-N-((1R,9S)-9-ethyl-5-fluoro-9-hydroxy-10,13-dioxo-2,3,9,10,13,15-hexahydro-1H,12H-benzo[de]pyrano[3',4',6,7]indolizino[1,2-b]quinolin-1-yl)-3-hydroxybutanamide] | – | – | – | 0.022 | 0.014 | 0.013 |
| CC[C@@]1(O)C(=O)OCc2c1cc1n(c2=O)Cc2c-1nc1cc(F)c(OC(F)F)c3c1c2C(NC(=O)C[C@@H](C)O)CC3 (stereo partly drawn) [5-1, (R)-N-((1S,9S)-4-(difluoromethoxy)-9-ethyl-5-fluoro-9-hydroxy-10,13-dioxo-2,3,9,10,13,15-hexahydro-1H,12H-benzo[de]pyrano[3',4',6,7]indolizino[1,2-b]quinolin-1-yl)-3-hydroxybutanamide] | – | – | – | 0.014 | 0.02 | 0.0067 |
| CC[C@@]1(O)C(=O)OCc2c1cc1n(c2=O)Cc2c-1nc1cc(F)c(OC(F)F)c3c1c2C(NC(=O)C[C@@H](C)O)CC3 (stereo partly drawn) [5-2, (R)-N-((1R,9S)-4-(difluoromethoxy)-9-ethyl-5-fluoro-9-hydroxy-10,13-dioxo-2,3,9,10,13,15-hexahydro-1H,12H-benzo[de]pyrano[3',4',6,7]indolizino[1,2-b]quinolin-1-yl)-3-hydroxybutanamide] | – | – | – | 0.018 | 0.02 | 0.0094 |
| CC[C@@]1(O)C(=O)OCc2c1cc1n(c2=O)Cc2c-1nc1cc(F)c(C)c3c1c2C(NC(=O)C[C@@H](C)O)CCC3 (stereo partly drawn) [6-1, (R)-N-((1S,10S)-10-ethyl-6-fluoro-10-hydroxy-5-methyl-11,14-dioxo-1,2,3,4,10,11,14,16-octahydro-13H-cyclohepta[3',4',6,7]indolizino[1,2-b]quinolin-1-yl)-3-hydroxybutanamide] | – | – | – | 0.0075 | 0.011 | 0.0088 |
| C=Cc1c(F)cc2nc3c(c4c2c1CCC4NC(=O)C[C@@H](C)O)Cn1c-3cc2c(c1=O)COC(=O)[C@]2(O)CC (stereo partly drawn) [7-1, (R)-N-((1S,9S)-9-ethyl-5-fluoro-9-hydroxy-10,13-dioxo-4-vinyl-2,3,9,10,13,15-hexahydro-1H,12H-benzo[de]pyrano[3',4',6,7]indolizino[1,2-b]quinolin-1-yl)-3-hydroxybutanamide] | – | – | – | – | 0.0086 | 0.0031 |
| CC[C@@]1(O)C(=O)OCc2c1cc1n(c2=O)Cc2c-1nc1cc(F)c(OCC(F)(F)F)c3c1c2C(NC(=O)C[C@@H](C)O)CC3 (stereo partly drawn) [8-2, (R)-N-((1R,9S)-9-ethyl-5-fluoro-9-hydroxy-10,13-dioxo-4-(2,2,2-trifluoroethoxy)-2,3,9,10,13,15-hexahydro-1H,12H-benzo[de]pyrano[3',4',6,7]indolizino[1,2-b]quinolin-1-yl)-3-hydroxybutanamide] | – | – | – | – | 0.087 | 0.038 |
| CC[C@@]1(O)C(=O)OCc2c1cc1n(c2=O)Cc2c-1nc1cc(F)c(C3CC3)c3c1c2C(NC(=O)[C@H]1C[C@@H](O)C1)CC3 (stereo partly drawn) [18-1, (1S,3S)-N-((1R,9S)-4-cyclopropyl-9-ethyl-5-fluoro-9-hydroxy-10,13-dioxo-2,3,9,10,13,15-hexahydro-1H,12H-benzo[d]pyrano[3',4':6,7]indolizino[1,2-b]quinolin-1-yl)-3-hydroxycyclobutane-1-carboxamide] | – | – | – | – | – | 0.012 |
| CC[C@@]1(O)C(=O)OCc2c1cc1n(c2=O)Cc2c-1nc1ccc(O)c3c1c2CCC3 [compound 9, (S)-9-ethyl-4,9-dihydroxy-1,2,3,9,12,15-hexahydro-10H,13H-benzopyrano[3',4',6,7]indolizino[1,2-b]quinoline-10,13-dione] | 0.003 | – | – | – | – | – |
| (R)-3-cyclopropyl-N-((1S,9S)-4-cyclopropyl-9-ethyl-5-fluoro-9-hydroxy-10,13-dioxo-2,3,9,10,13,15-hexahydro-1H,12H-benzo[d]pyrano[3',4':6,7]indolizino[1,2-b]quinolin-1-yl)-3-hydroxypropanamide [34-2] | – | – | – | 0.006 | – | 0.004 |
